# Data published in patent US11203600B2 (Denali Therapeutics Inc., priority 2017, dated 2021).
# Molecular target: GST-hRIPK1 (8-327) (Homo sapiens (Human), UniProt Q13546)
# Experiment: Fluorescent Polarization Binding (FP Binding) assay, RIPK1
# Details: 10 nM GST-hRIPK1 (8-327), 5 nM fluorescent-labeled ligand, RT, 30 min, mean of at least two independent experiments
# Procedure: Fluorescent Polarization Binding (FP Binding) assay (Berger S. B. et al. (2015) Cell Death Discovery, 1: 15009; Maki J. L. et al. (2012) Anal Biochem., 427(2): 164-174) was performed in polystyrene low volume 384-well black plate, at RT in a final volume of 10.1 μl/well using 10 nM of GST-hRIPK1 (8-327) enzyme and 5 nM of fluorescent-labeled ligand (14-(2-{[3-({2-{[4-(cyanomethyl)phenyl]amino]-6-[(5-cyclopropyl-1H-pyrazol-3-yl)amino]-4-pyrimidinyl}amino) propyl}amino}-2-oxoethyl)-16,16,18,18-tetramethyl-6,7,7a,8a,9,10,16,18-octahydrobenzo [2″,3″]indolizino[8″,7″:5′,6′]pyrano [3′,2′:3,4]pyrido[1,2-a]indo1-5-ium-2-sulfonate.
# Test compounds were serially diluted in DMSO at 100 fold final concentrations in the assay (1% DMSO final). In each well of a 384-well Plate were dispensed 0.1 μL of compound solution (or DMSO for controls) followed by 5 μL of GST-hRIPK1 (8-327) at twice the final concentrations in assay buffer (50 mM HEPES pH 7.5, 10 mM NaCl, 50 mM MgCl2, 0.02% CHAPS, 0.5 mM DTT and 0.01% Pluronic F127). For negative control the enzyme addition was replaced by assay buffer only.
# After addition of 5 μL of fluorescentlabeled ligand at twice the final concentrations in assay buffer, the plate was incubated at RT for […]. At the end, the binding was measured as FP value with the Envision (PerkinElmer) plate reader using filter for an excitation λ=531 nm FP and an emission λ=595 nm FP (S & P-pol). GST-hRIPK1 (8-327) enzyme was produced via Baculovirus expression.
# Test compound inhibition was expressed as percent inhibition of internal assay controls. For concentration response curves, normalized data is fit and IC50 determined using XL-fit (IDBS) for Excel. The IC50 values were averaged to determine a mean value, for a minimum of two independent experiments. Results are shown in Table 2 (RIPK1 IC50) values: +++=0.1 nM<IC50<100 nM; ++=100 nM<IC50<1 μM; +=1 μM<IC50).
# GST-hRIPK1 (8-327), sequence (Q13546 8-327): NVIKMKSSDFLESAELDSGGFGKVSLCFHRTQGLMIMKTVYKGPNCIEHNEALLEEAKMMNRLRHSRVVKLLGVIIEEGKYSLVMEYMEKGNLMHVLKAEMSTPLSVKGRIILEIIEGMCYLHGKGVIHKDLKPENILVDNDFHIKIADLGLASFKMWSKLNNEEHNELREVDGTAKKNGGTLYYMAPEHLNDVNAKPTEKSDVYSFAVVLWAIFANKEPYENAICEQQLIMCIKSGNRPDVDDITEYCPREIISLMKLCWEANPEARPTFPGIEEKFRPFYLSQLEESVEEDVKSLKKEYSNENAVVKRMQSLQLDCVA
row,Structure (SMILES),IC50 [nM]
1,"CC(C)(C(=O)N1CCOc2ncccc2C1)C(F)F [Example 34, 1-(2,3-dihydropyrido[3,2-f][1,4]oxazepin-4(5H)-yl)-3,3-difluoro-2,2-dimethylpropan-1-one]",> 1000
2,"CC(C)(CCF)C(=O)N1CCOc2c(C#N)cncc2C1 [Example 60, 4-(4-fluoro-2,2-dimethyl-butanoyl)-3,5-dihydro-2H-pyrido[3,4-f][1,4]oxazepine-9-carbonitrile]",100 to 1000
3,"COc1ccnc(N2CCC(C(=O)N3Cc4cncc(C#N)c4OC[C@H]3C)CC2)n1 [Example 119, (3R)-4-(1-(4-methoxypyrimidin-2-yl)piperidine-4-carbonyl)-3-methyl-2,3,4,5-tetrahydropyrido[3,4-f][1,4]oxazepine-9-carbonitrile]",0.1 to 100
4,"CC(C(=O)N1CCOc2c(C#N)cncc2C1)(C(F)(F)F)C(F)(F)F [Example 152, 4-[3,3,3-trifluoro-2-methyl-2-(trifluoromethyl)propanoyl]-3,5-dihydro-2H-pyrido[3,4-f][1,4]oxazepine-9-carbonitrile]",100 to 1000
5,"CC(C)(C(=O)N1CCOc2c(C#N)cncc2C1)C1(O)CC1 [Example 81, 4-(2-(1-hydroxycyclopropyl)-2-methylpropanoyl)-2,3,4,5-tetrahydropyrido[3,4-f][1,4]oxazepine-9-carbonitrile]",> 1000
6,"CC(C)(CC(F)F)C(=O)N1CCOc2c(C#N)cncc2C1 [Example 149, 4-(4,4-difluoro-2,2-dimethyl-butanoyl)-3,5-dihydro-2H-pyrido[3,4-f][1,4]oxazepine-9-carbonitrile]",100 to 1000
7,"CC1CN(C(=O)C(C)(C)C(F)F)Cc2ccccc2O1 (stereo not drawn) [Example 36, 3,3-difluoro-2,2-dimethyl-1-(2-methyl-2,3-dihydrobenzo[f][1,4]oxazepin-4(5H)-yl)propan-1-one]",> 1000
8,"CC(C)(C(=O)N1CCOc2c(C#N)cncc2C1)C1CC1C#N (stereo not drawn) [Example 83, 4-[2-(2-cyanocyclopropyl)-2-methyl-propanoyl]-3,5-dihydro-2H-pyrido[3,4-f][1,4]oxazepine-9-carbonitrile]",> 1000
9,"COc1nc(N2CCC(OC)(C(=O)N3CCOc4c(C#N)cncc4C3)CC2)ncc1F [Example 194, 4-[1-(5-fluoro-4-methoxy-pyrimidin-2-yl)-4-methoxy-piperidine-4-carbonyl]-3,5-dihydro-2H-pyrido[3,4-f][1,4]oxazepine-9-carbonitrile]",0.1 to 100
10,"CCC(C)(C(=O)N1CCOc2c(C#N)cncc2C1)C(F)F (stereo not drawn) [Example 57, 4-(2-(difluoromethyl)-2-methylbutanoyl)-2,3,4,5-tetrahydropyrido[3,4-f][1,4]oxazepine-9-carbonitrile]",0.1 to 100
11,"COc1nc(N2CCC(C(=O)N3Cc4cncc(C#N)c4OC[C@H]3C)CC2)ncc1F [Example 120, (3R)-4-(1-(5-fluoro-4-methoxypyrimidin-2-yl)piperidine-4-carbonyl)-3-methyl-2,3,4,5-tetrahydropyrido[3,4-f][1,4]oxazepine-9-carbonitrile]",0.1 to 100
12,"CCC(C)(C)C(=O)N1Cc2cncc(C#N)c2OC[C@H]1C [Example 75, (3R)-4-(2,2-dimethylbutanoyl)-3-methyl-3,5-dihydro-2H-pyrido[3,4-f][1,4]oxazepine-9-carbonitrile]",0.1 to 100
13,"CC(C)(C(=O)N1CCOc2cccc(C#N)c2C1)C(F)F [Example 27, 4-(3,3-difluoro-2,2-dimethyl-propanoyl)-3,5-dihydro-2H-1,4-benzoxazepine-6-carbonitrile]",> 1000
14,"N#Cc1cncc2c1OCCN(C(=O)C1(F)CCN(c3nccn4ccnc34)CC1)C2 [Example 106, 4-(4-fluoro-1-imidazo[1,2-a]pyrazin-8-yl-piperidine-4-carbonyl)-3,5-dihydro-2H-pyrido[3,4-f][1,4]oxazepine-9-carbonitrile]",100 to 1000
15,"COC1(C(=O)N2CCOc3c(C#N)cncc3C2)CCN(c2ncc(F)cn2)CC1 [Example 185, 4-[1-(5-fluoropyrimidin-2-yl)-4-methoxy-piperidine-4-carbonyl]-3,5-dihydro-2H-pyrido[3,4-f][1,4]oxazepine-9-carbonitrile]",0.1 to 100
16,"CN(C)CCCOc1nc(N2CCC(F)(C(=O)N3CCOc4c(C#N)cncc4C3)CC2)ncc1F [Example 127, 4-[1-[4-[3-(dimethylamino)propoxy]-5-fluoro-pyrimidin-2-yl]-4-fluoro-piperidine-4-carbonyl]-3,5-dihydro-2H-pyrido[3,4-f][1,4]oxazepine-9-carbonitrile]",100 to 1000
17,"Cc1cncc2c1OCCN(C(=O)C(C)(C)C(F)F)C2 [Example 62, 3,3-difluoro-2,2-dimethyl-1-(9-methyl-3,5-dihydro-2H-pyrido[3,4-f][1,4]oxazepin-4-yl)propan-1-one]",> 1000
18,"N#Cc1cncc2c1OCCN(C(=O)C1(C(F)F)CCC1)C2 [Example 49, 4-[1-(difluoromethyl)cyclobutanecarbonyl]-3,5-dihydro-2H-pyrido[3,4-f][1,4]oxazepine-9-carbonitrile]",0.1 to 100
19,"N#Cc1cncc2c1OCCN(C(=O)C1(C(F)(F)F)CCC1)C2 [Example 53, 4-[1-(trifluoromethyl)cyclobutanecarbonyl]-3,5-dihydro-2H-pyrido[3,4-f][1,4]oxazepine-9-carbonitrile]",100 to 1000
20,"CC(C)(CC(F)(F)F)C(=O)N1CCOc2c(C#N)cncc2C1 [Example 47, 4-(4,4,4-trifluoro-2,2-dimethyl-butanoyl)-3,5-dihydro-2H-pyrido[3,4-f][1,4]oxazepine-9-carbonitrile]",0.1 to 100
21,"COC1(C(=O)N2CCOc3c(F)cncc3C2)CCN(c2ncc(F)c(OCC(F)F)n2)CC1 [Example 132, (1-(4-(2,2-difluoroethoxy)-5-fluoropyrimidin-2-yl)-4-methoxypiperidin-4-yl)(9-fluoro-2,3-dihydropyrido[3,4-f][1,4]oxazepin-4(5H)-yl)methanone]",0.1 to 100

# Same assay, conditions: GST-hRIPK1 (8-327), mean of at least two independent experiments
row,Structure (SMILES),IC50 [nM]
1,"N#Cc1cncc2c1OCCN(C(=O)C1CCN(c3ccnc4ccnn34)CC1(F)F)C2 (stereo not drawn) [Example 221, 4-(3,3-difluoro-1-pyrazolo[1,5-a]pyrimidin-7-yl-piperidine-4-carbonyl)-3,5-dihydro-2H-pyrido[3,4-f][1,4]oxazepine-9-carbonitrile]",100 to 1000
2,"COc1nc(N2CCC(C(=O)N3CCCc4ccccc4C3)CC2)ncc1F [Example 237, [1-(5-fluoro-4-methoxy-pyrimidin-2-yl)-4-piperidyl]-(1,3,4,5-tetrahydro-2-benzazepin-2-yl)methanone]",0.1 to 100
3,"N#Cc1cncc2c1OCCN(C(=O)C1CCN(c3nccc4ncnn34)C[C@@H]1F)C2 (stereo partly drawn) [Example 250, 4-[(3,4)-trans-3-fluoro-1-([1,2,4]triazolo[1,5-c]pyrimidin-5-yl)piperidine-4-carbonyl]-3,5-dihydro-2H-pyrido[3,4-f][1,4]oxazepine-9-carbonitrile]",100 to 1000
4,"COc1nc(N2CCC(C(=O)N3CCOc4c(C#N)cncc4C3)CC2)c(F)cc1F [Example 287, 4-[1-(3,5-difluoro-6-methoxy-2-pyridyl)piperidine-4-carbonyl]-3,5-dihydro-2H-pyrido[3,4-f][1,4]oxazepine-9-carbonitrile]",0.1 to 100
5,"N#Cc1cncc2c1OCCN(C(=O)C1CCN(c3nccc4ncnn34)CC1(F)F)C2 (stereo not drawn) [Example 246, 4-[3,3-difluoro-1-([1,2,4]triazolo[1,5-c]pyrimidin-5-yl)piperidine-4-carbonyl]-3,5-dihydro-2H-pyrido[3,4-f][1,4]oxazepine-9-carbonitrile]",100 to 1000
6,"COC1(C(=O)N2CCOc3ccncc3C2)CCN(c2ncc(F)cn2)CC1 [Example 234, 3,5-dihydro-2H-pyrido[3,4-f][1,4]oxazepin-4-yl-[1-(5-fluoropyrimidin-2-yl)-4-methoxy-4-piperidyl]methanone]",0.1 to 100
7,"N#Cc1cncc2c1OCCN(C(=O)C1CCN(c3nccn4ncnc34)CC1(F)F)C2 (stereo not drawn) [Example 219, 4-[3,3-difluoro-1-([1,2,4]triazolo[1,5-a]pyrazin-8-yl)piperidine-4-carbonyl]-3,5-dihydro-2H-pyrido[3,4-f][1,4]oxazepine-9-carbonitrile]",100 to 1000
8,"N#Cc1cncc2c1OCCN(C(=O)C1(F)CCN(c3ncc(F)c(C4CC4)n3)CC1)C2 [Example 201, 4-[1-(4-cyclopropyl-5-fluoro-pyrimidin-2-yl)-4-fluoro-piperidine-4-carbonyl]-3,5-dihydro-2H-pyrido[3,4-f][1,4]oxazepine-9-carbonitrile]",0.1 to 100
9,"CCC(C)(C(=O)N1CCOc2c(C#N)cncc2C1)C(F)F (single isomer, unassigned) [Example 260, 4-(2-(Difluoromethyl)-2-methylbutanoyl)-2,3,4,5-tetrahydropyrido[3,4-f][1,4]oxazepine-9-carbonitrile]",0.1 to 100
